Assay results from ChEMBL document CHEMBL1156621, “Synthesis and cellular effects of cycloterpenals: cyclohexadienal-based activators of neurite outgrowth” (2008).
≈ marks a conversion by molar mass, not a printed value.

Experiments:
Assay type in all cases: functional
Saccharomyces cerevisiae = test: Antifungal activity against Saccharomyces cerevisiae after 16 hrs
Escherichia coli = test: Antibacterial activity against Escherichia coli after 16 hrs
Bacillus subtilis = test: Antibacterial activity against Bacillus subtilis after 16 hrs

SMILES | MIC (Saccharomyces cerevisiae) [µg/mL] | MIC (Escherichia coli) [µg/mL] | MIC (Bacillus subtilis) [µg/mL]
CCC1(c2cccs2)C(C=O)=CC=C(c2cccs2)C1C (stereo unspecified) | > 100 | > 100 | > 100
CC(C)=CC[C@@H]1C(C)=CC=C(C=O)[C@H]1c1ccccc1 | > 100 | > 100 | > 100
CC1=C(/C=C/C(C)=C/C=C/C2=CC=C(C=O)C(c3ccc([N+](=O)[O-])cc3)C2)C(C)(C)CCC1 (stereo unspecified) | > 100 | > 100 | > 100
CC(C)=CCCC1=CC=C(C=O)C(c2ccc(N(C)C)cc2)C1 (stereo unspecified) | > 100 | > 100 | > 100
CC(C)=CC[C@H]1C(C)=CC=C(C=O)[C@H]1c1ccccc1 | > 100 | > 100 | > 100
CC(C)=CCCC1=CC=C(C=O)C(C)(CCC=C(C)C)C1 (stereo unspecified) | > 100 | > 100 | > 100
CC1=CC=C(C=O)C(C)(C)C1 | > 100 | > 100 | > 100
CCCCC[C@H]1C(C)=CC=C(C=O)[C@H]1c1ccc(N(C)C)cc1 | > 100 | > 100 | > 100
CC(C)=CCC/C(C)=C/C[C@H]1C(C)=CC=C(C=O)[C@H]1c1ccc([N+](=O)[O-])cc1 | > 100 | > 100 | > 100
Cc1ccc(C2=CC=C(C=O)C(C)(C)C2)o1 | > 100 | > 100 | > 100
CC1C(c2cccs2)=CC=C(C=O)C1c1ccc(N(C)C)cc1 (stereo unspecified) | > 100 | > 100 | > 100
Cc1ccc(C2=CC=C(C=O)C(C)(c3ccc(C)o3)C2)o1 (stereo unspecified) | > 100 | > 100 | > 100
CC(C)=CCC/C(C)=C/C[C@H]1C(C)=CC=C(C=O)[C@H]1c1ccccc1 | > 100 | > 100 | > 100
CC(C)=CCC/C(C)=C/C[C@H]1C(C)=CC=C(C=O)[C@H]1c1ccc(N(C)C)cc1 | > 100 | > 100 | > 100
CC(C)=CC[C@@H]1C(C)=CC=C(C=O)[C@H]1c1ccc(N(C)C)cc1 | > 100 | > 100 | > 100
CCCCC[C@H]1C(C)=CC=C(C=O)[C@H]1c1ccccc1 | > 100 | > 100 | > 100
CC(C)=CCC/C(C)=C/CCC1=CC=C(C=O)C(c2ccccc2)C1 (stereo unspecified) | > 100 | > 100 | > 100
CC1CC(c2cccs2)=CC=C1C=O (stereo unspecified) | > 100 | > 100 | > 100

Other lines, results leading:

MIC (Saccharomyces cerevisiae) [µg/mL] | MIC (Escherichia coli) [µg/mL] | MIC (Bacillus subtilis) [µg/mL] | SMILES
> 100 | > 100 | > 100 | CC1(c2ccc(-c3ccccc3)cc2)CC(c2ccc(-c3ccccc3)cc2)=CC=C1C=O (stereo unspecified)
> 100 | > 100 | > 100 | O=CC1=CC=C(c2ccccc2)CC1c1ccccc1 (stereo unspecified)
> 100 | > 100 | > 100 | CC1=C(/C=C/C2=CC=C(C=O)C(c3ccc([N+](=O)[O-])cc3)C2)C(C)(C)CCC1 (stereo unspecified)
> 100 | > 100 | > 100 | CC1C(c2cccs2)=CC=C(C=O)C1c1ccc([N+](=O)[O-])cc1 (stereo unspecified)
> 100 | > 100 | > 100 | CN(C)c1ccc(-c2cc(-c3ccc4ccccc4c3)ccc2C=O)cc1
> 100 | > 100 | > 100 | CC(C)=CCCc1ccc(C=O)c(-c2ccccc2)c1
> 100 | > 100 | > 100 | Cc1ccc(C=O)c(-c2ccccc2)c1
> 100 | > 100 | > 100 | Cc1ccc(C2=CC=C(C=O)C(c3ccccc3)C2)o1 (stereo unspecified)
> 100 | > 100 | > 100 | CC(C)=CCCc1ccc(C=O)c(-c2ccc([N+](=O)[O-])cc2)c1
> 100 | > 100 | > 100 | CC1=CC=C(C=O)C(C)(c2ccc(-c3ccccc3)cc2)C1 (stereo unspecified)
> 100 | > 100 | > 100 | O=Cc1ccc(-c2ccccc2)cc1-c1ccc([N+](=O)[O-])cc1
> 100 | > 100 | > 100 | O=CC1=CC=C(c2ccc(-c3ccccc3)cc2)CC1
> 100 | > 100 | > 100 | CC1=CC=C(C=O)C(c2ccc([N+](=O)[O-])cc2)C1 (stereo unspecified)
> 100 | > 100 | > 100 | CC1(c2ccc3ccccc3c2)CC(c2ccc3ccccc3c2)=CC=C1C=O (stereo unspecified)
> 100 | > 100 | 10 (≈ 32.1 µM) | CC(C)=CC[C@H]1C(C)=CC=C(C=O)[C@H]1c1ccc([N+](=O)[O-])cc1
> 100 | > 100 | > 100 | O=CC1=CC=C(c2cccs2)CC1c1ccccc1 (stereo unspecified)
> 100 | > 100 | > 100 | CN(C)c1ccc(-c2cc(-c3ccc(-c4ccccc4)cc3)ccc2C=O)cc1
> 100 | > 100 | > 100 | O=CC1=CC=C(c2ccccc2)CC1c1ccc([N+](=O)[O-])cc1 (stereo unspecified)
> 100 | > 100 | > 100 | CC1C(c2cccs2)=CC=C(C=O)C1c1ccccc1 (stereo unspecified)
